Assay results taken from patent US20260297136A1, “PEPTIDES WITH LIPOLYTIC, ANTI-LIPOGENIC, ANTIFIBROTIC AND ANTI-INFLAMMATORY ACTIVITY” (FUNDACIÓ HOSPITAL UNIVERSITARI VALL D'HEBRON - INSTITUT DE …, priority 2023, published 2026).

Columns and labels:
[1] = tested on: HepG2 cells; assay: Hepatic lipogenic key enzymes in HepG2 cells in the presence of 30 mM fructose (2 h), Example 7; type: cell-based, human; conditions: 40 μg/ml
Method: FIG. 34. Effects of different peptides and SHBG in reducing hepatic lipogenic key enzymes in the presence of 30 mM fructose. Each bar within each group represents mRNA levels of a key hepatic lipogenic enzyme, from left to right: Acetyl-CoA Carboxylase (ACC), ATP Citrate Lyase (ACLY) and Fatty Acid Synthase (FAS), and a key transcription factor regulating several lipogenic enzymes such as PPARγ (PPARγ).
(§1) Cell culture reagents were from Life Technologies Inc (Invitrogen SA, Barcelona, Spain). HepG2 hepatoblastoma cells (cat. no. HB-8065; ATCC, LGC Standards SLU, Barcelona, Spain) were maintained in Dulbecco's modified Eagle medium (DMEM) supplemented with 10% fetal bovine serum and antibiotics.
(§2) • HepG2 cells were cultured for 5 day in the absence or presence of 30 mM fructose. Cells cultured in 30 mM fructose were daily treated with vehicle, Telmisartan, Semaglutide or EDL6D. • HepG2 cells were cultured for 24 h in the absence or presence of GP6 (40 μg/ml), GP10 (40 μg/ml), GP11 (40 μg/ml), GP12 (40 μg/ml), GP13 (40 μg/ml) or SHBG (20 nM). • HepG2 cells were cultured in the absence or presence of 30 mM fructose and treated for 2 h with vehicle or GP4 (40 μg/ml), GP6 (40 μg/ml), GP7 (40 μg/ml), GP8 (40 μg/ml), GP9 (40 μg/ml), GP10 (40 μg/ml), GP11 (40 μg/ml), GP12 (40 μg/ml), GP13 (40 μg/ml) or SHBG (20 nM).
(§3) Total RNA was extracted from HepG2 and LX-2 cells using TRIzol reagent (Invitrogen SA). Reverse transcription was performed at 42° C. for 50 minutes using […] of total RNA, 200 U of Superscript II, and an oligo-dT primer and reagents provided by Invitrogen. An aliquot of the reverse transcription product was amplified in a […] reaction using SYBRGreen (Invitrogen SA) with appropriate oligonucleotide primer pairs corresponding to human SHBG, ACC, FAS, ACLY, PPARG, and 18S and mouse ACC, FAS, ACLY, PPARG, Col1A1 and 18S. Results were analyzed using the 7000 Sequence Detection System program (Applied Biosystems, Thermo Fisher Scientific, Barcelona, Spain) (Shez-Lopez et al Endocrinology 2017).

[2] = tested on: HepG2 cells; assay: Hepatic lipogenesis gene expression (ACC, FAS, ACLY mRNA by RTPCR) in HepG2 cells, Example 2; type: cell-based, human; conditions: 10 μM, 24 h, relative to 18S
Method: FIG. 5 Human hepatoblastoma cell line HepG2 was treated with vehicle (DMSO) or 10 μM of GP4, GP7, GP8 or GP9 for 24 h. RNA was extracted and mRNA levels of Acetyl-CoA Carboxylase (ACC), Fatty Acid Synthase (FAS) and ATP-Citrate Lyase (ACLY) relative to 18S were measured by RTPCR.
Cell culture reagents were from Life Technologies Inc (Invitrogen SA, Barcelona, Spain). HepG2 hepatoblastoma cells (cat. no. HB-8065; ATCC, LGC Standards SLU, Barcelona, Spain) were maintained in Dulbecco's modified Eagle medium (DMEM) supplemented with 10% fetal bovine serum and antibiotics. HepG2 cells were treated with vehicle or 10 μM of GP4, GP7, GP8 and GP9 for 24 h. LX-2 human hepatic stellate cells (SCC064) were maintained in DMEM supplemented with 2% fetal bovine serum and antibiotics. For experiments, LX-2 were cultured for 24 h in DMEM 0.2% FBS and treated for 24 h with vehicle or TGFβ1 (20 ng/ml) in the absence or presence of 8 μM of GP4, GP7, GP8 and GP9 for 24 h. At the end of the experiment's cells were harvested for gene expression analysis.
as §3, with “human” for “human SHBG,”, “Col1A1” for “PPARG,”, “(shown in table 7).” for “and mouse ACC, FAS, ACLY, PPARG, Col1A1 and 18S.”, “(Sex Hormone-Binding Globulin Reduction in Metabolic Disorders May Play a Role in NAFLD Development.Saez-Lopez C, Barbosa-Desongles A, Hernandez C, Dyer R A, Innis S M, Simo R, Selva D M. Endocrinology. 2017 Mar. 1; 158(3):545-559. doi: 10.1210/en.2016-1668).” for “(Shez-Lopez et al Endocrinology 2017).”

[3] = tested on: HepG2 cells; assay: Hepatic lipogenesis gene expression in HepG2 cells (24 h), Example 7; type: cell-based, human; conditions: 40 μg/ml, vs vehicle
Source text: FIG. 32. Effect of GP6 and modified peptides on hepatic lipogenesis in HepG2 cells. Each bar within each group represents mRNA levels of a key hepatic lipogenic enzyme, from left to right: Acetyl-CoA Carboxylase (ACC), ATP Citrate Lyase (ACLY) and Fatty Acid Synthase (FAS), and a key transcription factor regulating several lipogenic enzymes such as PPARγ (PPARγ).
as §1, §2, §3

[4] = tested on: human mature adipocytes; assay: Lipolysis in human mature adipocytes (glycerol production), Example 2; type: cell-based; conditions: 10 μM, 16 h, with respect to control cells
Method: FIG. 7. Mature human subcutaneous adipocytes were treated with vehicle (DMSO), 3 μM of Isoproterenol or 10 μM of GP4, GP8 or GP9 for 16 h. Glycerol concentration was assessed using a Lipolysis Assay Kit (Tebu-bio). Lipolysis induction was calculated with respect to the control cells treated with DMSO.
Human preadipocytes and cell culture reagents were from purchased from Tebu-Bio (Tebu-bio, Barcelona, Spain) and differentiation protocol was done following the manufacturer's instructions. Human adipocytes were maintained in a humidified incubator with 5% CO2 at 37° C. (Sex hormone-binding globulin overexpression protects against high-fat diet-induced obesity in transgenic male mice. Saez-Lopez C, Villena J A, Simo R, Selva D M. J Nutr Biochem. 2020 November; 85:108480. doi: 10.1016/j.jnutbio.2020.108480).
Lipolysis assays were performed using a Lipolysis Kit (Tebu-Bio) following the manufacturer's instructions as previously described.

[5] = tested on: obesity and fatty liver disease mouse model; assay: Therapeutic effects in an obesity and fatty liver disease mouse model, Example 6; type: in vivo, C57BL6/J male mice; conditions: Telmisartan 5 mg/kg/day in drinking water, 10 weeks
Method: C57BL6/J male mice were purchased and kept for quarantine and acclimatization for a period of about 7 days before initiation of every experiment. Mice were housed in clean and sterilized mice cages and maintained in a controlled environment with 22+3° C. temperature, 50+20% humidity, a light/dark cycle of 12 hours each and 15-20 fresh air changes per hour.
For Obesity and NAFLD induction, the animals were fed ad libitum, either with chow diet (150SP-10, Safe Diets) or 45% high-fat diet (TD.190179, Envigo) plus 30% fructose (F0127, Sigma Aldrich) in drinking water for 20 weeks. The therapeutic effect of a daily subcutaneous injection of GP6 (20 mg/kg/day) in this mouse model was assessed for 10 weeks, starting the treatment on week 10 of the experiment until week 20.
A group of control mice (n=10) was fed with control diet and regular drinking water and a group of mice (n=30) obesity and fatty liver disease was induced for 10 weeks. At this point, mice were randomly divided in three groups of n=10, the first group was treated with daily subcutaneous injections of vehicle (water), the second group was treated with Telmisartan (5 mg/kg/day) in the drinking water and a subcutaneous injection of vehicle, and the third group with daily subcutaneous injection of GP6 (20 mg/kg/day) during 10 weeks.
At the end of the experiment mice were sacrificed, serum samples were extracted, tissues were weighted and part was fixed in paraformaldehyde for histology studies and part immediately frozen at −80 C for mRNA and protein expression studies as well as assessment of triglycerides.
The histology studies, AST and ALT measurements, TG measurements, and the RNA analysis were performed as described in Example 4.

| Molecule | fructose-induced expression of ACC [1] | fructose-induced expression of ACLY [1] | fructose-induced expression of FAS [1] | fructose-induced expression of PPARγ [1] | ATP-Citrate Lyase (ACLY) mRNA levels [2] | Acetyl-CoA Carboxylase (ACC) mRNA levels [2] | Fatty Acid Synthase (FAS) mRNA levels [2] | ACC mRNA levels [3] | ACLY mRNA levels [3] | FAS mRNA levels [3] | PPARγ mRNA levels [3] | increase of glycerol production (lipolysis) [4] [%] | liver triglyceride (TAG) content [5] | liver weight [5] | Total body weight versus control mice ([5]; vs control diet mice) | serum glucose levels ([5]; vs vehicle) |
| --- | --- | --- | --- | --- | --- | --- | --- | --- | --- | --- | --- | --- | --- | --- | --- | --- |
| CC[C@@H](C)[C@@H](NC(=O)[C@H](NC(=O)CNC(=O)[C@@H](CCC(=O)O)NC(=O)[C@H]1CCCN1C(=O)[C@@H](CC(=O)O)NC(=O)[C@@H](Cc1c[nH]c2ccccc12)NC(=O)[C@H](N)[C@H](C)O)C(C)C)C(=O)N[C@H](Cc1ccccc1)C(=O)N[C@H](Cc1ccc(O)cc1)C(=O)NCC(=O)N[C@H](CC(=O)O)C(=O)N[C@@H](C(=O)N[C@H](CC(N)=O)C(=O)N1CCC[C@@H]1C(=O)N[C@H](CCCCN)C(=O)N[C@H](CC(=O)O)C(=O)N[C@H](CC(=O)O)C(=O)N[C@H](Cc1c[nH]c2ccccc12)C(=O)N[C@H](Cc1ccccc1)C(=O)O)[C@H](C)O [GP7] | able to reduce the expression of ACC and ACLY more effectively than SHBG | able to reduce the expression of ACC and ACLY more effectively than SHBG | had no effect on FAS and PPARγ expression | had no effect on FAS and PPARγ expression | reduced | reduced | increased | – | – | – | – | – | – | – | – | – |
| TKTSASFEVRTWDPEGVIFYADTNPKDDWF [GP13] | able to reduce the expression of ACC and ACLY more effectively than SHBG | able to reduce the expression of ACC and ACLY more effectively than SHBG | had no effect on FAS | increased PPARγ expression | – | – | – | able to reduce | no ACLY and PPARγ | able to reduce | no ACLY and PPARγ | – | – | – | – | – |
| ATKTSASFEVRTWDPEAVIFY [GP10] | able to reduce | able to reduce | able to reduce | able to reduce | – | – | – | reduced the mRNA levels | reduced the mRNA levels | reduced the mRNA levels | reduced the mRNA levels | – | – | – | – | – |
| CC[C@@H](C)[C@@H](NC(=O)[C@@H](CCCCN)NC(=O)[C@H](NC(=O)[C@@H](CC(C)C)NC(=O)[C@@H](CC(=O)O)NC(=O)[C@@H](Cc1ccccc1)NC(=O)[C@H](NC(=O)[C@@H](CCSC)NC(=O)[C@H](N)C(C)C)[C@H](C)O)[C@H](C)O)C(=O)N[C@@H](C(=O)N[C@H](CCCCN)C(=O)N[C@@H](C(=O)N[C@H](CO)C(=O)N[C@H](CO)C(=O)N[C@H](CO)C(=O)N[C@H](Cc1ccccc1)C(=O)N[C@H](CCC(=O)O)C(=O)N[C@@H](C(=O)N[C@H](CCCNC(=N)N)C(=O)N[C@@H](C(=O)N[C@H](Cc1c[nH]c2ccccc12)C(=O)N[C@H](CC(=O)O)C(=O)N1CCC[C@@H]1C(=O)N[C@H](CCC(=O)O)C(=O)NCC(=O)N[C@@H](C(=O)N[C@@H](C(=O)N[C@H](Cc1ccccc1)C(=O)N[C@H](Cc1ccc(O)cc1)C(=O)O)[C@H](C)CC)C(C)C)[C@H](C)O)C(C)C)[C@H](C)O)[C@H](C)O [GP4] | able to reduce | able to reduce | able to reduce | able to reduce | did not alter | reduced | increased | – | – | – | – | 500 | – | – | – | – |
| TKTASAFEVRTWDPEGVIFY [GP12] | able to reduce | able to reduce | able to reduce | able to reduce | – | – | – | reduced all key lipogenic genes except FAS | reduced all key lipogenic genes except FAS | – | reduced all key lipogenic genes except FAS | – | – | – | – | – |
| CCCc1nc2c(C)cc(-c3nc4ccccc4n3C)cc2n1Cc1ccc(-c2ccccc2C(=O)O)cc1 [Telmisartan, reference compound] | – | – | – | – | – | – | – | – | – | – | – | – | failed to decrease TAG liver content | did not reduced significantly | significantly increased | did not have any effect |
| TKTASAFEVRTWDPEGVIFYGDTNPKDDWF [GP11] | able to reduce | able to reduce | able to reduce | able to reduce | – | – | – | reduced the mRNA levels | reduced the mRNA levels | reduced the mRNA levels | reduced the mRNA levels | – | – | – | – | – |
